The numbers were not newly measured in PMC8618441, “From Natural Xanthones to Synthetic C-1 Aminated 3,4-Dioxygenated Xanthones as Optimized Antifouling Agents” (Marine Drugs, 2021), which cites them from elsewhere.

Holding throughout (design): method as in PMID 23172582
Conditions in all cases: in words; cited from earlier work

The test system of data set [1] is Staphylococcus aureus.
Data set [2] has as its system Colletotrichum lagenarium.
In data set [3] the test system is Escherichia coli.
For data set [4], the system named is brine shrimp (Artemia salina).

As for `COc1cc(C(=O)O)cc2oc3cc(C)cc(O)c3c(=O)c12` [yicathin C], the “antimicrobial activity against Staphylococcus aureus” value in data set [1] is “could inhibit”. Further, in data set [2], the “antimicrobial activity against Colletotrichum lagenarium” value is recorded as “could inhibit”. For the same compound, the “antimicrobial activity against Escherichia coli” value in data set [3] is listed as “could inhibit”. Also, the “brine shrimp (Artemia salina) toxicity” value in data set [4] is reported as “weak”.
